The values that follow come from ChEMBL document CHEMBL1201862, “PubChem BioAssay data set” (2004).

Structures are written as SMILES.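 Where inhibition never reached the appropriate level, the endpoint shown equals the highest concentration tested. Otherwise, values were interpolated linearly from a five-concentration, 48-hour dose response in 96-well plates. GI50: concentration for 50% inhibition of growth.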 Calls of active or inactive are those of the source. No stated cut-off is given here; in the data, active = GI50 up to about 1.1 µM and inactive = higher. Some results are limits rather than exact numbers.

Some test systems named below: K562; RXF 393; ACHN; UACC-62; MOLT-4; OVCAR-4; SK-MEL-2; HOP-62; 786-0; NCI/ADR-RES; PC-3; HT-29; OVCAR-3; MCF7; OVCAR-8; SF-539; EKVX; RPMI-8226; HCC 2998.
Common to all, as to assay: growth of human tumour cells (NCI), 48 h

`COc1ccc(C(=O)/C=C/c2ccncc2)cc1OC`: the GI50 in the test on K562 is 2.31 µM (inactive); with RXF 393, 12.6 µM (inactive); in the test on ACHN, 14.9 µM (inactive); in the test on UACC-62, 15.5 µM (inactive); in the test with MOLT-4 it was 8.32 µM (inactive); in the test with OVCAR-4, 11 µM (inactive). In addition, the GI50 in the test with SK-MEL-2 was 16.7 µM (inactive); in the test on HOP-62, 16.3 µM (inactive); in the test with 786-0 it was 11.4 µM (inactive); with NCI/ADR-RES, 19.7 µM (inactive); in the test on PC-3 it was 16.7 µM (inactive); in the test on HT-29 it was 8.93 µM (inactive). The GI50 was 6.27 µM (inactive) in the test on OVCAR-3; 3.74 µM (inactive) in the test on MCF7; 15.3 µM (inactive) with OVCAR-8; 10.3 µM (inactive) with SF-539; 16.7 µM (inactive) in the test on EKVX.
On to `COCN1C(=O)[C@@H]2CCCN2C(=O)c2cc(OC)c(Cc3ccccc3)cc21`, for which the GI50 in the test with RXF 393 is 34.3 µM (inactive); with ACHN, > 100 µM (inactive); in the test on UACC-62 it was > 100 µM (inactive); in the test with OVCAR-4 it was 43.7 µM (inactive); in the test on SK-MEL-2, > 100 µM (inactive); in the test on HOP-62, > 100 µM (inactive). Moreover, the GI50 in the test with 786-0 is > 100 µM (inactive); in the test with NCI/ADR-RES, > 100 µM (inactive); in the test with PC-3, 74.5 µM (inactive); with HT-29 it was 93.3 µM (inactive); in the test on MCF7, 61.5 µM (inactive); in the test on OVCAR-8 it was > 100 µM (inactive). The GI50 in the test with SF-539 and in the test on EKVX was > 100 µM (inactive) each time.
`N#Cc1ccc(OC(=O)c2ccc(NC(=N)N)cc2)cc1.c1ccncc1`: the GI50 is 42 µM (inactive) in the test with K562; > 100 µM (inactive) with RXF 393; > 100 µM (inactive) with ACHN; > 100 µM (inactive) with UACC-62; 38.5 µM (inactive) with MOLT-4; > 100 µM (inactive) in the test with OVCAR-4. In addition, the GI50 is > 100 µM (inactive) in the test with SK-MEL-2; > 100 µM (inactive) in the test with HOP-62; 66.1 µM (inactive) in the test on 786-0; > 100 µM (inactive) with NCI/ADR-RES; > 100 µM (inactive) with PC-3; 53.7 µM (inactive) in the test on HT-29. For the same molecule, the GI50 with OVCAR-3 is 30.1 µM (inactive); in the test with MCF7, 39.9 µM (inactive); in the test with OVCAR-8 it was > 100 µM (inactive); in the test on SF-539 it was 73.6 µM (inactive); in the test on EKVX, > 100 µM (inactive); in the test on RPMI-8226 it was 40.8 µM (inactive).
On to `COC(=O)C1(C(=O)OC)C/C(C)=C(/C)SCCCS1`, for which the GI50 is 43.1 µM (inactive) in the test with K562; > 100 µM (inactive) in the test on RXF 393; > 100 µM (inactive) in the test on ACHN; > 100 µM (inactive) in the test with UACC-62; 44.4 µM (inactive) with MOLT-4; > 100 µM (inactive) in the test with OVCAR-4. In addition, the GI50 in the test on SK-MEL-2 is > 100 µM (inactive); with HOP-62, > 100 µM (inactive); in the test with 786-0, > 100 µM (inactive); with NCI/ADR-RES, > 100 µM (inactive); in the test with PC-3, 64.1 µM (inactive); with HT-29, > 100 µM (inactive). The GI50 with OVCAR-3 was 92.7 µM (inactive); in the test on MCF7, > 100 µM (inactive); in the test with OVCAR-8 it was > 100 µM (inactive); in the test on SF-539, > 100 µM (inactive); in the test on HCC 2998, > 100 µM (inactive); in the test with EKVX, > 100 µM (inactive).
On to `O=C1CC(=O)NC(NN2C(=O)/C(=C/C(=O)c3ccco3)N=C2c2ccccc2)=N1`, for which the GI50 was 66.8 µM (inactive) in the test with RXF 393; > 100 µM (inactive) in the test with ACHN; 37.7 µM (inactive) with UACC-62; 22.9 µM (inactive) in the test with MOLT-4; 31 µM (inactive) with OVCAR-4; 92.7 µM (inactive) in the test with SK-MEL-2. Moreover, the GI50 in the test with HOP-62 was > 100 µM (inactive); in the test on 786-0, > 100 µM (inactive); in the test with NCI/ADR-RES, 41.1 µM (inactive); in the test on PC-3 it was 29.4 µM (inactive); in the test with HT-29, > 100 µM (inactive); in the test on OVCAR-3, 42.4 µM (inactive). Moreover, the GI50 in the test with MCF7 was 95.1 µM (inactive); in the test with OVCAR-8, 44.5 µM (inactive); in the test with SF-539, 44.1 µM (inactive); in the test with HCC 2998 it was > 100 µM (inactive).
Consider `CSc1cc(Cl)c(C)cc1S(=O)(=O)NC(=O)NNc1cnc2ccccc2n1`, for which the GI50 in the test with K562 is > 100 µM (inactive); in the test on RXF 393, > 100 µM (inactive); in the test with ACHN, > 100 µM (inactive); in the test on MOLT-4, 17.5 µM (inactive); with OVCAR-4 it was > 100 µM (inactive); with SK-MEL-2 it was > 100 µM (inactive). Moreover, the GI50 with HOP-62, in the test on 786-0, in the test with NCI/ADR-RES, in the test with PC-3, with HT-29 and with OVCAR-3 was > 100 µM (inactive) throughout. Moreover, the GI50 with MCF7, in the test on OVCAR-8, with SF-539, in the test on HCC 2998 and with EKVX was > 100 µM (inactive) each time.
`CC(C)C(C/C=C1/CC(CO)(COC(=O)C(C)(C)C)OC1=O)C(C)C` (stereo not drawn): the GI50 is 0.171 µM (active) in the test with K562; 15.6 µM (inactive) with RXF 393; 5.9 µM (inactive) in the test on ACHN; 12.9 µM (inactive) in the test with UACC-62; 0.514 µM (active) in the test with MOLT-4; 16.6 µM (inactive) with OVCAR-4. The GI50 in the test with SK-MEL-2 was 15.1 µM (inactive); with HOP-62 it was 1.03 µM (active); in the test on 786-0, 3.23 µM (inactive); in the test on NCI/ADR-RES, 15.7 µM (inactive); in the test on PC-3, 6.24 µM (inactive); in the test with HT-29 it was 16.7 µM (inactive). Further, the GI50 with OVCAR-3 is 15.6 µM (inactive); in the test with MCF7, 18.4 µM (inactive); with OVCAR-8, 19 µM (inactive); in the test on SF-539, 0.598 µM (active); with HCC 2998, 3.1 µM (inactive); with EKVX, 8.17 µM (inactive).
Take `c1ccc(CCNc2ccccn2)nc1`: the GI50 in the test with RXF 393, in the test with ACHN, in the test on UACC-62, in the test with OVCAR-4, in the test on SK-MEL-2 and with HOP-62 was > 100 µM (inactive) each time. Also, the GI50 in the test on 786-0, in the test with NCI/ADR-RES, in the test on PC-3, with HT-29, in the test on OVCAR-3 and with MCF7 was > 100 µM (inactive) in each case. Besides, the GI50 with OVCAR-8, with HCC 2998 and in the test on EKVX was > 100 µM (inactive) throughout.
Consider `COC(=O)Nc1nc2cc(S(=O)(=O)n3nnc4ccccc43)ccc2[nH]1`, for which the GI50 in the test on K562 was > 100 µM (inactive); in the test with RXF 393, 14.6 µM (inactive); in the test on ACHN, 59.4 µM (inactive); in the test on UACC-62, 41.5 µM (inactive); with MOLT-4, > 100 µM (inactive); with OVCAR-4, > 100 µM (inactive). The GI50 in the test with SK-MEL-2 was > 100 µM (inactive); in the test on HOP-62, 15.8 µM (inactive); in the test on 786-0, 40.2 µM (inactive); in the test on NCI/ADR-RES it was > 100 µM (inactive); with PC-3 it was 35 µM (inactive); with HT-29, > 100 µM (inactive). Further, the GI50 in the test with OVCAR-3 is > 100 µM (inactive); in the test on MCF7, 28.1 µM (inactive); in the test on OVCAR-8, > 100 µM (inactive); with SF-539 it was 10.2 µM (inactive); in the test on EKVX, > 100 µM (inactive); in the test on RPMI-8226, 0.708 µM (active).
Turning to `COc1ccc(-c2nc(SCC(=O)N/N=C/c3ccc(O)c(OC)c3)[nH]c2-c2ccc(OC)cc2)cc1`, the GI50 with K562 was 20 µM (inactive); in the test on RXF 393 it was 18.6 µM (inactive); with ACHN, 18.2 µM (inactive); in the test with UACC-62, 14.1 µM (inactive); in the test on OVCAR-4, 40.9 µM (inactive); in the test on SK-MEL-2 it was 17.3 µM (inactive). Besides, the GI50 in the test on HOP-62 was 24.6 µM (inactive); with 786-0, 19.8 µM (inactive); with NCI/ADR-RES it was 31.8 µM (inactive); in the test on PC-3, 27.1 µM (inactive); in the test on HT-29, 21.9 µM (inactive); in the test on OVCAR-3, 18.8 µM (inactive). Further, the GI50 was 17.9 µM (inactive) with MCF7; 28.9 µM (inactive) in the test on OVCAR-8; 21.4 µM (inactive) in the test on SF-539; 17.7 µM (inactive) with HCC 2998; 33.3 µM (inactive) in the test with EKVX.
`CCOC(=O)c1ccc2c(c1)Cc1cc([N+](=O)[O-])ccc1-2`: the GI50 in the test with K562 was 55 µM (inactive); with RXF 393 it was 22.9 µM (inactive); in the test on ACHN, 29.9 µM (inactive); with UACC-62, 50 µM (inactive); in the test on MOLT-4 it was 20.1 µM (inactive); in the test on OVCAR-4 it was 15.7 µM (inactive). In addition, the GI50 in the test on HOP-62 is > 100 µM (inactive); with 786-0 it was 86.5 µM (inactive); in the test with NCI/ADR-RES, 25.1 µM (inactive); in the test on PC-3, 61.9 µM (inactive); with HT-29, 27.1 µM (inactive); in the test on OVCAR-3, 46.6 µM (inactive). Further, the GI50 is 19.3 µM (inactive) with MCF7; 42 µM (inactive) in the test with OVCAR-8; 36.1 µM (inactive) in the test with SF-539; 12.3 µM (inactive) in the test with EKVX; 41.7 µM (inactive) in the test with RPMI-8226.
Consider `Cc1csc(-n2c(C)nc3cc(Cl)ccc3c2=O)n1`, for which the GI50 in the test on K562 is 83.6 µM (inactive); in the test on RXF 393, > 100 µM (inactive); in the test on ACHN, > 100 µM (inactive); in the test on UACC-62 it was > 100 µM (inactive); with MOLT-4 it was 46.7 µM (inactive); in the test with OVCAR-4, 45.4 µM (inactive). Also, the GI50 in the test with SK-MEL-2 is > 100 µM (inactive); in the test with HOP-62, > 100 µM (inactive); in the test on 786-0, > 100 µM (inactive); with NCI/ADR-RES, 86.3 µM (inactive); with PC-3, > 100 µM (inactive); with HT-29, > 100 µM (inactive). Further, the GI50 with OVCAR-3 was 78.9 µM (inactive); with MCF7, 31.5 µM (inactive); in the test with OVCAR-8, > 100 µM (inactive); in the test on SF-539, > 100 µM (inactive); with HCC 2998, > 100 µM (inactive); in the test on EKVX it was 8.02 µM (inactive).
